One experiment has as its target Olfr1258 (Mus musculus, UniProt Q8VGN6). As to the kind of experiment: Reconstruction experiment: cAMP-responsive luciferase in HEK293 cells expressing Olfr1258. In kind it is cell-based.
Experiment [1] addresses T1, Olfr168 (Mus musculus, UniProt A0PK36).
T1 sequence (A0PK36 1-312): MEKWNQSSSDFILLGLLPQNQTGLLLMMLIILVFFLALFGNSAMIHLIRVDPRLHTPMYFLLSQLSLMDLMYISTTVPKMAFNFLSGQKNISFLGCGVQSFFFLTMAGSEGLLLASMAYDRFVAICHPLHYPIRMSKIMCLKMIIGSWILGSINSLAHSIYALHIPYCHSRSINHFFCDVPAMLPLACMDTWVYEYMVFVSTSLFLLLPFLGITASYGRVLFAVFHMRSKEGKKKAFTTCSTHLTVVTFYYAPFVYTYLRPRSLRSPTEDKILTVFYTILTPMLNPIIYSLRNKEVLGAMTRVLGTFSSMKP
The experiment is described as follows: Reconstruction experiment: cAMP-responsive luciferase in HEK 293T cells expressing Olfr168. In kind it is cell-based. As to conditions: HEK 293T cells transiently expressing Olfr168, Gaolf, RTP1S, pGlosensor-22. The source says: (§1) In order to verify whether or not the mouse-derived olfactory receptors obtained in the above 3) and 4) surely respond to odor molecules used for screening, a system in which adenylate cyclase is activated from a olfactory receptor through heterotrimeric G protein including Gaolf to accumulate cAMP from ATP, and luciferase expression is induced in an intracellular cAMP concentration-dependent manner, was reconstructed in HEK 293 cells.
(§2) Specifically, each of mouse-derived olfactory receptor genes, Olfr168, Olfr205, Olfr45 and Olfr166, and DNA coding for the amino acid sequence shown in SEQ ID NO:9 were fused. The obtained genes were incorporated into pME18S plasmid incorporated into downstream of SRa promoter, a plasmid having a base sequence coding for the amino acid sequence shown in SEQ ID NO:2 to allow Gaolf to be expressed, a plasmid to allow Receptor-transporting protein 1S (RTP1S) having a base sequence shown in SEQ ID NO:6, which is a factor to raise the efficiency of presentation of olfactory receptors from the Golgi body to the cell surface, to be expressed, and a cAMP-responsive luciferase expressing plasmid pGlosensor-22 (Promega Corporation). The plasmids are introduced into HEK 293T cells by Lipofectamine 2000 (Life Technologies) to cause transient expression.

The target of experiment [2] is T2, Olfr205 (Mus musculus, UniProt B9EKD6).
T2 sequence (B9EKD6 1-305): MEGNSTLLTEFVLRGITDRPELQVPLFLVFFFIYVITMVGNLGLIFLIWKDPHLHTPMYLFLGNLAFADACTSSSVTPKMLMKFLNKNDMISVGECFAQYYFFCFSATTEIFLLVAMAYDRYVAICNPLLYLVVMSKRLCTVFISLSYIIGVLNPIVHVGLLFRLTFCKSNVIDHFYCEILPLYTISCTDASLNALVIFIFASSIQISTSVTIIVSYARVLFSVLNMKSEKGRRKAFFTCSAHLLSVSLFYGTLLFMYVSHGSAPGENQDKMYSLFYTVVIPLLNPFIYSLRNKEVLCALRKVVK
As to the kind of experiment: Reconstruction experiment: cAMP-responsive luciferase in HEK293 cells expressing Olfr205. In kind it is cell-based.
Source text: as §1, §2

Experiment [3] has as its system olfactory sensory neurons. The experiment is described as follows: OneCell system Fluo-4 screening of olfactory epithelium-derived cells stimulated by an odor molecule. In kind it is cell-based, mouse. As to conditions: 2-pentanone (30 mM) for 10 seconds and (3 mM) for 10 seconds; of approximately 10000 olfactory sensory neurons. As to the method:
C57/BL6J (male) aged 3 to 5 weeks were purchased from Japan SLC, Inc. The mice were beheaded after intravenous anesthesia with […] of Urethane solution (300 mg/mL; U2500, Sigma-Aldrich) and olfactory epithelium was extracted on ice. […] An equal amount of Ca^2+ ringer solution containing 0.1 mg/mL DNase I, 0.1 mg/mL BSA, and […] leupeptin (0.025 mg/mL trypsin inhibitor in the case of trypsin) was added thereto to stop the enzyme reaction, and the obtained solution then allowed to pass through a cell strainer twice to remove large tissue fragments.
The sample after removal was subjected to centrifugation treatment, and this was washed once to obtain an olfactory epithelium-derived cell solution.
(§3) The olfactory epithelium-derived cells were stimulated as follows.
The olfactory epithelium-derived cells were stimulated by an odor molecule, 2-pentanone (30 mM) for 10 seconds and 2-pentanone (3 mM) for 10 seconds under the above conditions, and olfactory sensory neurons included in olfactory epithelium-derived cells were then identified by a high K^+ ringer solution. As a result, approximately 100 of approximately 10000 olfactory sensory neurons reacted with 2-pentanone. […]

Experiment [4] addresses T1, Olfr168. As to the kind of experiment: Fluo-4 Ca2+ uptake in isolated olfactory sensory neuron HI28-03 (calculation method (A)). In kind it is cell-based. The note with it: HI28-03 cells. As to the method: as §3
(§4) As a result, Olfr168 (mOR271-1; GenBank accession number: AY317252) and Olfr205 (mOR182-11P; GenBank accession number: BC150839) were identified in HI28-03 and HI25-18 respectively.
(§5) Specifically, the above Ca^2+ ringer solution was refluxed to the slide glass which had been put on the OneCell device and had stored olfactory epithelium-derived cells, and a Ca^2+ ringer solution containing 3 mM 2-pentanone described below was added thereto for 20 seconds every two minutes. The degree of increase in transient fluorescence intensity derived from Fluo-4 in each olfactory sensory neuron was repeatedly measured 5 times (FIG. 8).

The target of experiment [5] is T2, Olfr205. As to the kind of experiment: Fluo-4 Ca2+ uptake in isolated olfactory sensory neuron HI25-18 (calculation method (A)). In kind it is cell-based. The note with it: HI25-18 cells. As to the method: as §3, §4, §5
In a further experiment the target is Olfr45 (Mus musculus, UniProt A0JLW4). The experiment is described as follows: cell-based. As to the method: (§6) The olfactory epithelium-derived cell solution obtained above was subjected to centrifugation at 1000 rpm for 5 minutes (2420, KUBOTA Co.) to remove the supernatant, and to this, a Ca^2+ ringer solution containing […] Fluo4-AM (F312, Dojindo) and 0.02 wt % Pluronic F-127 (P6867, Molecular Probes) was then added. A polystyrene slide having about 400000 nano chambers with a diameter of […] for As OneCell Picking system (AS ONE Corporation; automated single-cell analysis and isolation system [equipped with temperature control system, time lapse system, perfusion system]; Yoshimoto, et al., Scientific Reports Vol. 3 (2013) 1191; hereinafter this can be referred to as “OneCell system” in the description) was immersed in 2% PVP (polyvinyl pyrrolidone (NACALAI TESQUE, INC.)) and then put on a perfusion jig for the OneCell system. […]
Sequence of Olfr45 (A0JLW4 1-311): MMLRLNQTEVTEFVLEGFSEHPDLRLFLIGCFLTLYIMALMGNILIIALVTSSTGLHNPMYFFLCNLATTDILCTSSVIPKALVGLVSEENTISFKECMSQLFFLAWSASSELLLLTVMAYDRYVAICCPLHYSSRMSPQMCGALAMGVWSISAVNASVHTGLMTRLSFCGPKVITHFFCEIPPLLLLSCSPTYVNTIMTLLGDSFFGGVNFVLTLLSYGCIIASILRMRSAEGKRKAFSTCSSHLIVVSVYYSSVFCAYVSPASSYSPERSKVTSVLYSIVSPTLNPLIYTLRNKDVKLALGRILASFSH
(§7) Subsequently, the slide was put on a prescribed site of the OneCell system and maintained with a Ca^2+ ringer solution having been circulated, and fluorescent images derived from Fluo-4 of each olfactory epithelium-derived cell included in the nano chambers were observed through 4×objective lens, and changes in fluorescence intensity over time were recorded. […]

Experiment [6] has as its target T3, Olfr166 (Mus musculus, UniProt Q8VGX2). The experiment is described as follows: cell-based.
Source text: as §1, §2

Experiment [7] deals with T3, Olfr166. The note with it: HG28-24 cells, stimulation by pyridine. As to the method: as §6, §7
In experiment [8] the test system is human-derived olfactory receptor. As to the kind of experiment: Human olfactory receptor-expressing cell array (404 sites, HEK293-C1/2 strain) on OneCell system. In kind it is cell-based. The note with it: concentration of 10 mM. The text has this: In the substrate used, hydrophilicity is increased by plasma treatment of the surface of a slide glass (Matsunami Glass Ind., Ltd.) by a plasma modifier (PM100, Yamato Scientific Co., Ltd.) It should be noted that a machine used for dot printing is a LaboJet-500 manufactured by MicroJet. […] When the array is left to stand on specific culture conditions and observed after 2 days, it is expected that added HEK293-C1/2 strain is proliferated on the sites on which the plasmid has been immobilized to form colonies. After that, the substrate having formed colonies thereon is loaded on the above OneCell system in the method shown in 2).

Where [9] appears, read: 3 mM 2-pentanone for 20 seconds every two minutes, measured 5 times.
Where [10] appears, read: stimulation by 2-pentanone, experiment independently carried out 5 times, read-out: relative value of increased Fluo-4 fluorescence intensity (high K+ ringer depolarization considered 100%).

T3 sequence (Q8VGX2 1-312): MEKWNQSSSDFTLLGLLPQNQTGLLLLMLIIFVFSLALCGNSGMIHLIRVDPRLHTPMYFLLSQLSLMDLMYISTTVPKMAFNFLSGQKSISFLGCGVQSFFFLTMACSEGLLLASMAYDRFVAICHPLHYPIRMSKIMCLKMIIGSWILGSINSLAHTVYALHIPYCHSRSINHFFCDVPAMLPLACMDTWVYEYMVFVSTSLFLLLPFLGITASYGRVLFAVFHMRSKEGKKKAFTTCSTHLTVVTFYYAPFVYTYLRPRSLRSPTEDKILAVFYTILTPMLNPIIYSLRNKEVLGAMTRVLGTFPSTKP
Sequence of Olfr1258 (Q8VGN6 1-311): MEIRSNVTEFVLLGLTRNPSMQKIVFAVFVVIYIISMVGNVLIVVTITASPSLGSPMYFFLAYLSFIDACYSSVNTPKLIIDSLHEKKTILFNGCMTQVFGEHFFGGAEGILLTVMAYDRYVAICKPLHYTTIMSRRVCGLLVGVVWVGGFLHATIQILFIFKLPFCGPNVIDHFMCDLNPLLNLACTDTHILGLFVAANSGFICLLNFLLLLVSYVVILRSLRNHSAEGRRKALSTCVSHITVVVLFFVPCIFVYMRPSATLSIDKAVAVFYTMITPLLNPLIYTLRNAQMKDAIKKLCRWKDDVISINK

Turning to `CCC(C)=O` [2-butanone], on Olfr1258, the EC50 (in general, the concentration that produces a half-maximal response) is about 1.5 mM.
Turning to `CCCC(C)=O` [2-pentanone], the EC50 is 2.1 ± 0.6 mM on Olfr168 [1] and about 4 mM at Olfr205 [2]. Besides, the “number of olfactory sensory neurons that reacted with the odor molecule” value in experiment [3] is recorded as “approximately 100”. For the same compound, the “increase in transient fluorescence intensity derived from Fluo-4” value is given as 46±12 on Olfr168 [4] (setting [9]) and 38±10 on Olfr205 [5] (setting [9]). The Emax on Olfr168 [4] (setting [10]) is 74 ± 3%; at Olfr205 [5] (setting [10]), 67 ± 4%.
Turning to `c1ccncc1` [pyridine], the “increased amount of fluorescence intensity derived from Fluo-4” value on Olfr45 (IG04-13 cells, stimulation by pyridine) is 195±70; at Olfr166 [7], 153±47. Besides, the Emax on Olfr45 (read-out: relative value of increased Fluo-4 fluorescence intensity (high K+ ringer depolarization considered 100%)) stood at 120 ± 6%. The EC50 on Olfr166 [6] was about 5 mM. Further, at Olfr166 [7] (experiment independently carried out 5 times), the “relative value of increased Fluo-4 fluorescence intensity (high K+ ringer depolarization considered 100%)” value is 132±5%.
Take `COc1cc(C=O)ccc1O` [vanillin]: the “fluorescence intensity response of cells to the odor molecule” value in experiment [8] was “increase in fluorescence intensity was observed in some cells”.

These data come from patent publication US20240280562A1, “METHOD FOR QUANTIFYING ODORS, CELLS USED IN SAME, AND METHOD FOR PRODUCING SAID CELLS” (KOMI HAKKO CORPORATION, priority 2017, published 2024).
